Literature values in patent US20230228766A1, “SERUM BIOMARKERS FOR PREDICTING AND PREVENTING HEMORRHAGIC STROKE” (Texas Tech University System, priority 2020, published 2023).

Conditions: free PRG in blood

SMILES: CC(=O)[C@H]1CC[C@H]2[C@@H]3CCC4=CC(=O)CC[C@]4(C)[C@H]3CC[C@]12C [PRG, progesterone]
- half-life of free, active form in blood: 5 to 10 min
